The values that follow are results of earlier work, collected in US6964946B1, “Oral pharmaceutical compositions containing taxanes and methods of treatment employing the same” (Baker Norton Pharmaceuticals, Inc., priority 1995, dated 2005).

SMILES strings stand for the structures. Entries after “also recorded” stand apart in the source; their conditions may differ.

The test system of data set [1] is protein isoprenylation.
Data set [2] has as its system tubulin.

In the case of `CC(=O)O[C@H]1C(=O)[C@@]2(C)[C@H]([C@H](OC(=O)c3ccccc3)[C@]3(O)C[C@H](OC(=O)[C@H](O)[C@@H](NC(=O)c4ccccc4)c4ccccc4)C(C)=C1C3(C)C)[C@]1(OC(C)=O)CO[C@@H]1C[C@@H]2O` [Paclitaxel, paclitaxel], the “level at which inhibition of protein isoprenylation occurs” value in data set [1] is reported as “about 0.03 μM; also recorded: about 25 ng/ml”. Besides, the “level at which inhibition of tubulin disassembly occurs” value in data set [2] is “about 0.1 μM; also recorded: about 85 ng/ml”.
